Source: article PMC10058949, “Effect of N-Terminal Peptide Modifications on In Vitro and In Vivo Properties of ^177Lu-Labeled Peptide Analogs Targeting CCK2R” (Pharmaceutics, 2023)
Where two headings read alike, the source gives them in different places.

Experiments:
[1] = Protein binding in human serum by Sephadex G-50 size-exclusion chromatography; assay type: in vitro ADME; conditions: human serum; time point not given
Description: (§1) The stability studies with the ^177Lu-labeled peptide analogs were carried out at a concentration of 0.5 nmol peptide/mL in fresh human serum (n = 2) for up to 24 h. A mixture of 0.05 nmol/mL of the radiolabeled peptides in PBS and octanol (1/1, v/v) was used to evaluate the octanol/PBS distribution coefficient (logD7.4; n = 8). To determine the protein binding in human serum by Sephadex G-50 size-exclusion chromatography (GE Healthcare Illustra, Little Chalfont, UK), a 25 µL serum sample was used for different time points after incubation. All steps were performed according to previously published protocols.

[2] = test system: A431-CCK2R/A431-mock xenografted BALB/c nude mice; experiment: Biodistribution 4 h p.i. in A431-CCK2R/A431-mock xenografted BALB/c nude mice; assay type: in vivo; conditions: 4 h p.i., ~0.5 MBq, 20 pmol, n=5
Description: (§2) Then, after 7–11 days, when visible tumor xenografts were formed, groups of 5 mice were injected intravenously via a lateral tail vein with ~0.5 MBq of radiolabeled peptide, corresponding to 20 pmol of peptide, in a total volume of ~150 µL in PBS/0.5% BSA. Using an additional mouse per group, a blocking study was performed by co-injecting a 1000-fold molar excess of the respective peptide analog (20 nmol) together with the radiolabeled peptide. For quantification, a 1:1, 1:10 and 1:50 standard was prepared using aliquots of the injection solution mixed with PBS/0.5% BSA. Mice were euthanized by cervical dislocation 4 h after injection. Subsequently, a blood sample was collected, and different tissues were dissected. All samples, as well as the rest of the body were weighed, and the activity measured in the γ-counter together with the standard. Results were expressed as percentage of injected activity per gram of tissue (%IA/g).

[3] = as above; assay type: in vivo; conditions: female, BALB/c nude, mouse, iv, 20 pmol, total radioactivity, 4 h p.i., 20 pmol; for tissue uptake at 4 h: ~0.5 MBq, n=5
Description: as §2

[4] = BALB/c mice, cited from earlier work
[5] = test system: A431-CCK2R/A431-mock xenografted BALB/c nude mice; experiment: Biodistribution blocking experiment with 1000-fold excess of non-radiolabeled peptide; assay type: in vivo; conditions: 4 h p.i., 1000-fold excess of non-radiolabeled peptide, n=1
Description: as §2

[6] = as above; assay type: in vivo, mice; conditions: female, BALB/c nude, mouse, iv, total radioactivity, 4 h p.i., 1000-fold excess of non-radiolabeled peptide, n=1
Description: as §2

[7] = Octanol/PBS distribution coefficient (logD7.4); assay type: physicochemical; conditions: octanol/PBS 1/1, pH 7.4; read-out: logD (octanol/PBS)
Description: as §1

[8] = Stability of 177Lu-labeled peptides in fresh human serum; assay type: in vitro ADME; conditions: 37 °C, 24 h incubation
Description: as §1

fraction unbound [1]: 0.667 | uptake in liver [2]: 1.02 ± 0.23 % IA/g | tissue uptake at 4 h ([3]; A431-CCK2R tumor xenograft, read-out: uptake in A431-CCK2R xenografts): 22.8 ± 4.67 %ID/g | tissue uptake at 4 h ([3]; A431-mock tumor xenograft, read-out: uptake in A431-mock xenografts): 0.19 ± 0.03 %ID/g | tissue uptake at 4 h ([3]; blood, read-out: uptake in blood): 0.11 ± 0.11 %ID/g | tissue uptake at 4 h ([3]; femur, read-out: uptake in femur): 0.36 ± 0.35 %ID/g | tissue uptake at 4 h ([3]; heart, read-out: uptake in heart): 0.1 ± 0.06 %ID/g | tissue uptake at 4 h ([3]; intestine, read-out: uptake in intestine): 1.02 ± 0.23 %ID/g | tissue uptake at 4 h ([3]; kidneys, read-out: uptake in kidneys): 3.45 ± 0.91 %ID/g | tissue uptake at 4 h ([3]; liver, read-out: uptake in liver): 1.02 ± 0.8 %ID/g | tissue uptake at 4 h ([3]; lung, read-out: uptake in lung): 0.17 ± 0.14 %ID/g | tissue uptake at 4 h ([3]; muscle, read-out: uptake in muscle): 0.1 ± 0.02 %ID/g | tissue uptake at 4 h ([3]; pancreas, read-out: uptake in pancreas): 1.91 ± 0.91 %ID/g | tissue uptake at 4 h ([3]; spleen, read-out: uptake in spleen): 0.27 ± 0.18 %ID/g | tissue uptake at 4 h ([3]; stomach, read-out: uptake in stomach): 6.26 ± 4.28 %ID/g | tissue to tissue ratio at 4 h ([3]; tumor / kidney, read-out: tumor-to-kidney ratio): 7 | uptake in intestine, blocking [5]: 0.79 % IA/g | uptake in kidneys, blocking [5]: 2.95 % IA/g | uptake in liver, blocking [5]: 0.54 % IA/g | uptake in muscle, blocking [5]: 0.03 % IA/g | uptake in spleen, blocking [5]: 0.16 % IA/g | tissue uptake at 4 h ([6]; A431-CCK2R tumor xenograft, read-out: uptake in A431-CCK2R xenograft, blocking): 0.54 %ID/g | tissue uptake at 4 h ([6]; A431-mock tumor xenograft, read-out: uptake in A431-mock xenograft, blocking): 0.34 %ID/g | tissue uptake at 4 h ([6]; blood, read-out: uptake in blood, blocking): 0.09 %ID/g | tissue uptake at 4 h ([6]; femur, read-out: uptake in femur, blocking): 0.04 %ID/g | tissue uptake at 4 h ([6]; heart, read-out: uptake in heart, blocking): 0.08 %ID/g | tissue uptake at 4 h ([6]; lung, read-out: uptake in lung, blocking): 0.08 %ID/g | tissue uptake at 4 h ([6]; pancreas, read-out: uptake in pancreas, blocking): 0.11 %ID/g | tissue uptake at 4 h ([6]; stomach, read-out: uptake in stomach, blocking): 0.09 %ID/g | logD [7]: -2.25 ± 0.13 | intact radiopeptide in human serum [8]: 96.9 ± 0.3%
SMILES: CCCC[C@@H](C(=O)N[C@@H](CC(=O)O)C(=O)N[C@@H](Cc1cccc2ccccc12)C(N)=O)N(C)C(=O)[C@H](Cc1c[nH]c2ccccc12)NC(=O)CNC(=O)[C@H](Cc1ccc(O)cc1)NC(=O)[C@H](C)NC(=O)[C@@H](CCC(=O)O)NC(=O)CN1CCN(CC(=O)O)CCN(CC(=O)O)CCN(CC(=O)O)CC1 [[^177Lu]Lu-DOTA-MGS5, metal not drawn, reference compound]
intact radiopeptide in blood ([4]; 10 min after intravenous injection): 86% | intact radiopeptide in blood ([4]; 30 min p.i.): 77% | intact radiopeptide in blood ([4]; 1 h after intravenous injection): 70%
